PubChem BioAssay AID1919014 (Molecular Pharmacology Branch, DTP, NCI, 2023)

Tested on: NCI-H1341 complex spheroids, percent test/control
Assay: Anticancer human tumor NCI-H1341 cell line growth inhibition [AhR];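 further: spheroids exposed to agents for seven days before readout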
Details: for IC50: curve of first compound; for viability, T/C: stronger effect = lower value
Text: Multicellular complex tumor spheroid response to aryl hydrocarbon receptor antagonists in combination with a variety of drugs and investigational agents in selected tumor cell lines
The current study was undertaken to assess response to aryl hydrocarbon receptor antagonists in combination with standard-of-care drugs and investigational agents in solid tumor complex spheroid models. Complex spheroids include a stromal component modeled by human endothelial cells (HUVEC) and fibroblasts modeled by human mesenchymal stem cells (MSCs). The concentration ranges selected for each drug and investigational agent were based upon clinically achievable concentrations if the clinical Cmax of the agent was known.
Compounds. The drugs and investigational agents: BAY 2416964 (NSC825713), GNF351 (NSC835774), CH-223191 (NSC835775), CPI-455 (NSC825282), aza-TdCyd (NSC777586), decitabine (NSC127716), belinostat (NSC758774), entinostat (NSC756642), pevonedistat (NSC761192), tazemetostat (NSC777109), talazoparib (NSC765396), olaparib (NSC753686), selinexor (NSC780203), nedisertib (M3814, NSC802822), bortezomib (NSC756655), venetoclax (NSC766270), doxorubicin (NSC123127), elimusertib (BAY189344, NSC800525), ceralasertib (AZD6738, NSC777638), TAK-243 (NSC785004), alisertib (NSC759677), etoposide (NSC141540), topotecan (NSC609699), eribulin (NSC707389), gemcitabine (NSC613327), carboplatin (NSC241240), cisplatin (NSC119875), and SN-38 (NSC673596) were obtained from the National Cancer Institute (NCI) Developmental Therapeutics Program Chemical Repository (32). The FDA-approved anticancer drug set is available from the Developmental Therapeutics Program at https://dtp.cancer.gov/organization/dscb/obtaining/available plates.htm. […] The stock solutions were prepared in dimethyl sulfoxide (DMSO, Sigma-Aldrich, St. Louis, MO, cat. D2650), except for the platinum compounds which were prepared in saline (Quality Biological, Gaithersburg, MD, cat. 114-055-101), at 800-fold the tested concentration and stored at -70 degrees C prior to their use. All drugs and investigational agents were tested over a range starting from a high concentration at or near the clinical Cmax and decreasing in half-log increments. If the clinical Cmax for an agent had not been determined, the highest concentration tested was 10 microM (Table 1).
Cell Culture. All cells were maintained in an incubator at 37 degrees C and 5% CO2 with 95% humidity. The PDC lines were cultured according to standard operating procedures established by the NCI PDMR (https://pdmr.cancer.gov). Briefly, all PDCs were thawed and cultured in Matrigel-coated flasks prepared with a working solution of 1X Ham's F-12 nutrient mix, without supplementation (Invitrogen, Waltham, MA, cat. 11765054), 100 U/mL penicillin-streptomycin (Invitrogen, cat. 15140122), and 2.5% Matrigel (Corning Inc., Corning, NY, cat. 354248) for the first three passages. All PDCs were cultured in complete DMEM/F-12 media containing advanced DMEM/F-12 (Invitrogen, cat. 12634028), 4.9% defined fetal bovine serum, heat inactivated (HyClone Laboratories Inc., Logan, UT, cat. SH30070.03HI), 389 ng/mL hydrocortisone (Sigma-Aldrich, cat. H4001), 9.7 ng/mL human EGF recombinant protein (Invitrogen, cat. PHG0313), 23.4 microg/mL adenine (Sigma-Aldrich, cat. A2786), 97.3 U/mL penicillin-streptomycin (Invitrogen, cat. 15140122), 1.9 mM L-glutamine (Invitrogen, cat. 25030081), and 9.7 microM Y-27632 dihydrochloride (Tocris Bioscience, Bristol, United Kingdom, cat. 1254). The PDCs were cultured in complete DMEM/F12 media without 10 microM Y-27632 dihydrochloride for at least two passages prior to the screen. The established cell lines NCI-H1341 and […] were cultured in DMEM/F-12, HEPES (Invitrogen, cat. 11330032), 5% defined fetal bovine serum (HyClone Laboratories Inc., cat. SH30070.03), ITS premix universal culture supplement [insulin (5 microg/mL), transferrin (5 microg/mL), and selenious acid (5 ng/mL)] […]

[1] = second compound 0.1 µM, first compound 0.0316 µM
[2] = second compound 0.1 µM, first compound 0.1 µM
[3] = second compound 0.1 µM, first compound 0.316 µM
[4] = second compound 0.1 µM, first compound 1 µM
[5] = second compound 0.1 µM, first compound 3.16 µM
[6] = second compound 0.1 µM, first compound 10 µM
[7] = second compound 0.316 µM, first compound 0.0316 µM
[8] = second compound 0.316 µM, first compound 0.1 µM
[9] = second compound 0.316 µM, first compound 0.316 µM
[10] = second compound 0.316 µM, first compound 1 µM
[11] = second compound 0.316 µM, first compound 3.16 µM
[12] = second compound 0.316 µM, first compound 10 µM
[13] = second compound 1 µM, first compound 0.0316 µM
[14] = second compound 1 µM, first compound 0.1 µM
[15] = second compound 1 µM, first compound 0.316 µM
[16] = second compound 1 µM, first compound 1 µM
[17] = second compound 1 µM, first compound 3.16 µM
[18] = second compound 1 µM, first compound 10 µM
[19] = second compound 3.16 µM, first compound 0.0316 µM
[20] = second compound 3.16 µM, first compound 0.1 µM
[21] = second compound 3.16 µM, first compound 0.316 µM
[22] = second compound 3.16 µM, first compound 1 µM
[23] = second compound 3.16 µM, first compound 3.16 µM
[24] = second compound 3.16 µM, first compound 10 µM
[25] = second compound 10 µM, first compound 0.0316 µM
[26] = second compound 10 µM, first compound 0.1 µM
[27] = second compound 10 µM, first compound 0.316 µM
[28] = second compound 10 µM, first compound 1 µM
[29] = second compound 10 µM, first compound 3.16 µM
[30] = second compound 10 µM, first compound 10 µM

IC50 (second compound 0.1 µM) [µM]	IC50 (second compound 0.316 µM) [µM]	IC50 (second compound 1 µM) [µM]	IC50 (second compound 3.16 µM) [µM]	IC50 (second compound 10 µM) [µM]	SMILES	viability, T/C [1] [%]	viability, T/C [2] [%]	viability, T/C [3] [%]	viability, T/C [4] [%]	viability, T/C [5] [%]	viability, T/C [6] [%]	viability, T/C [7] [%]	viability, T/C [8] [%]	viability, T/C [9] [%]	viability, T/C [10] [%]	viability, T/C [11] [%]	viability, T/C [12] [%]	viability, T/C [13] [%]	viability, T/C [14] [%]	viability, T/C [15] [%]	further results
< 0.0316	< 0.0316	< 0.0316	< 0.0316	< 0.0316	Nc1ccn(C2OC(CO)C(O)C2(F)F)c(=O)n1 (stereo not given) + CC(CO)NC(=O)c1cc(-c2ccc(Cl)cc2)nn(-c2cnn(C)c2)c1=O	28	28	27.7	25.3	27.3	26.4	30.9	29.1	25.6	26.9	24.4	24.1	28.6	29.3	30.5	viability, T/C [16]: 23.8%; viability, T/C [17]: 26.1%; viability, T/C [18]: 25.9%; viability, T/C [19]: 30.1%; viability, T/C [20]: 29.1%; viability, T/C [21]: 30%; viability, T/C [22]: 24%; viability, T/C [23]: 25.3%; viability, T/C [24]: 27%; viability, T/C [25]: 33.6%; viability, T/C [26]: 29.8%; viability, T/C [27]: 27.4%; viability, T/C [28]: 24.3%; viability, T/C [29]: 22.3%; viability, T/C [30]: 21.4%
> 10	> 10	> 10	> 10	> 10	O=C(c1cc(Cc2n[nH]c(=O)c3ccccc23)ccc1F)N1CCN(C(=O)C2CC2)CC1 + CC(CO)NC(=O)c1cc(-c2ccc(Cl)cc2)nn(-c2cnn(C)c2)c1=O	89.5	98.4	93.7	89.2	82.4	70.6	96.1	93.6	91.6	80.1	77.1	72.7	80.6	105	97.3	viability, T/C [16]: 81.5%; viability, T/C [17]: 86.8%; viability, T/C [18]: 74.6%; viability, T/C [19]: 94.4%; viability, T/C [20]: 90.6%; viability, T/C [21]: 94.8%; viability, T/C [22]: 75.9%; viability, T/C [23]: 84.2%; viability, T/C [24]: 60.7%; viability, T/C [25]: 70.2%; viability, T/C [26]: 77.5%; viability, T/C [27]: 85%; viability, T/C [28]: 65.9%; viability, T/C [29]: 71.9%; viability, T/C [30]: 58.6%
